In patent US20090298820A1, “3-SUBSTITUTED-1H-PYRROLO[2,3-B]PYRIDINE AND 3-SUBSTITUTED-1H-PYRROLO[3,2-B]PYRIDINE COMPOUNDS, THEIR USE AS MTOR KINASE AND PI3 KINASE INHIBITORS, AND THEIR SYNTHESES” (Wyeth, priority 2008, published 2009):
Like-named read-outs stand apart in the source and are kept apart here.

Tests used:
Assay type in all cases: biochemical
PI3Kα = PI3Kα (Homo sapiens, UniProt P42336); experiment: PI3K-alpha fluorescence polarization assay; conditions: read-out: PI3Kα Median IC50
PI3Kγ = PI3Kγ (Homo sapiens, UniProt P48736); experiment: PI3K-gamma fluorescence polarization assay; conditions: read-out: PI3Kγ Median IC50
mTOR = mTOR (Homo sapiens, UniProt P42345); experiment: mTOR enzyme assay (DELFIA format, His6-S6K substrate)
[1] = read-out: mTOR Kinase Median IC50

Chain of PI3Kα (P42336 whole entry, species assumed): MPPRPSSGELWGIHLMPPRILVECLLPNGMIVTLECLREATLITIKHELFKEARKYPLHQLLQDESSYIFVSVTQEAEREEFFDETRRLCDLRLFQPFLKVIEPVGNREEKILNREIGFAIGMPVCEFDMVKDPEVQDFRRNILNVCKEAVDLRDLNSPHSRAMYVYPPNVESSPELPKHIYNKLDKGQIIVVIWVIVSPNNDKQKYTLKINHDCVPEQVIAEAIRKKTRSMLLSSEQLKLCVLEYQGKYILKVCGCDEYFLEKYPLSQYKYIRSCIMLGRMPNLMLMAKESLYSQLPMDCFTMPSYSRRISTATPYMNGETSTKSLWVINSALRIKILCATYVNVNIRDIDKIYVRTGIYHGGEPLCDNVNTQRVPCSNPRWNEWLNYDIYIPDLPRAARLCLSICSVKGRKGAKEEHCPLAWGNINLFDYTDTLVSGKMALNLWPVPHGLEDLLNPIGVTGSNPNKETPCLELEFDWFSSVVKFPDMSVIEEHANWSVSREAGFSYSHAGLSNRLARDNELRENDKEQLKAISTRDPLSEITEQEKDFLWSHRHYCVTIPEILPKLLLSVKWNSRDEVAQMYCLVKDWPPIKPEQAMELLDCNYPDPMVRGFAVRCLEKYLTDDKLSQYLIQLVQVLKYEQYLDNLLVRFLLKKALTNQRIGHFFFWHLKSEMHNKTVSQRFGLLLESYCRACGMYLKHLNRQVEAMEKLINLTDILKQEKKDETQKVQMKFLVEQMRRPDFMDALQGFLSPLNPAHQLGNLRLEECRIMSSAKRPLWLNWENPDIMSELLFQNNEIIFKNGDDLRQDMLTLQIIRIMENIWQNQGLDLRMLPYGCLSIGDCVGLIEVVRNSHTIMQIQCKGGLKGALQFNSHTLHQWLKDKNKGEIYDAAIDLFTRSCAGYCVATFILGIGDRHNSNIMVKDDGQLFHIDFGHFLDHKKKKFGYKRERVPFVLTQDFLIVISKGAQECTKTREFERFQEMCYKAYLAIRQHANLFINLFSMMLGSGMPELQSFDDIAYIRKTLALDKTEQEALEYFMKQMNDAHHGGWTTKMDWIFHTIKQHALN
Chain of PI3Kα (P27986 whole entry partner, species assumed): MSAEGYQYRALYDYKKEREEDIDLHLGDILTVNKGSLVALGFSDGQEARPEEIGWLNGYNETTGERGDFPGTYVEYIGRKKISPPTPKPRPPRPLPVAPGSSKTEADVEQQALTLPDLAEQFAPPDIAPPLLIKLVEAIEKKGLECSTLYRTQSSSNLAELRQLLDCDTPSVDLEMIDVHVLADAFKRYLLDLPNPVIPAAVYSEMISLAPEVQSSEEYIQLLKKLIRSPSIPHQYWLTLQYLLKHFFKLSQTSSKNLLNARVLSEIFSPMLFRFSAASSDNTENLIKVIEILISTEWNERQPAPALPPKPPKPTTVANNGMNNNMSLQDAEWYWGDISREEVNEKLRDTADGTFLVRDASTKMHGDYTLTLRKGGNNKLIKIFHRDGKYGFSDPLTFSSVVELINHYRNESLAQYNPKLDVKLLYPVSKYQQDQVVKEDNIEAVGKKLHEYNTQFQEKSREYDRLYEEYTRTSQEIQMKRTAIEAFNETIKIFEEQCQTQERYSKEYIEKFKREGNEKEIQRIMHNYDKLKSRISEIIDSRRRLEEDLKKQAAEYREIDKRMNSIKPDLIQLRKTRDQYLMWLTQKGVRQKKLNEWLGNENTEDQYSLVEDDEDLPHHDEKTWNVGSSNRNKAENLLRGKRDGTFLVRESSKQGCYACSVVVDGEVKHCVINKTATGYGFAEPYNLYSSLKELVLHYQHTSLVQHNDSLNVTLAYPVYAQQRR
Chain of PI3Kγ (P48736 whole entry, species assumed): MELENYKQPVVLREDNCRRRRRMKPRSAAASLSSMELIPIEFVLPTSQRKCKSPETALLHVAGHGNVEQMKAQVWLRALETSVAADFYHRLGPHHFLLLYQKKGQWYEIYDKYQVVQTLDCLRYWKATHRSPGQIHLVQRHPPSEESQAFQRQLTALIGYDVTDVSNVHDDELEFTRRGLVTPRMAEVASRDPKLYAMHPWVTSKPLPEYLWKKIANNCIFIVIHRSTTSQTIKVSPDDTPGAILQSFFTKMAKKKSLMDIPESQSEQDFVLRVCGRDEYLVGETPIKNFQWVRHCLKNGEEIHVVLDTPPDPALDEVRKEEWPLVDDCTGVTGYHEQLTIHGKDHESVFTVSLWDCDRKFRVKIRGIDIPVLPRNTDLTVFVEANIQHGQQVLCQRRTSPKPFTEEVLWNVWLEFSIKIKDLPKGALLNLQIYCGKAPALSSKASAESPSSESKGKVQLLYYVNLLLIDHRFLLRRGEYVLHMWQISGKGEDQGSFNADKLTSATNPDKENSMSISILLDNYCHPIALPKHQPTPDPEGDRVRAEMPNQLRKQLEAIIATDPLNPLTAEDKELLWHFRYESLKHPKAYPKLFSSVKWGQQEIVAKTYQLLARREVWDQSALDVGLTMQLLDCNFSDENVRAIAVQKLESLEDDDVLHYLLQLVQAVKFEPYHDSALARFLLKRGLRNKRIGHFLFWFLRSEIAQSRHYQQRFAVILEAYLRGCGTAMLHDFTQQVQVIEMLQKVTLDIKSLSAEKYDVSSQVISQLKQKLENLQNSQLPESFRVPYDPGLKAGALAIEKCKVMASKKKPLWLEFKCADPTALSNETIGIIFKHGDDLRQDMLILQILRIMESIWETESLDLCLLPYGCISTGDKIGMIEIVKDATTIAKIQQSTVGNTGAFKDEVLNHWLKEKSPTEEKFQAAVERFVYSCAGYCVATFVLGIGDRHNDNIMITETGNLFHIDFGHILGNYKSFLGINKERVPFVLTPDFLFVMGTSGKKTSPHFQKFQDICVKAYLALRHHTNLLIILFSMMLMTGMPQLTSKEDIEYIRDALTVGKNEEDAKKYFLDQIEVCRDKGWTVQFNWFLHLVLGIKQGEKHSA

Structure (SMILES)	IC50 (PI3Kα) [nM]	IC50 (PI3Kγ) [nM]	IC50 (mTOR; [1]) [nM]	IC50 (mTOR) [nM]
CN(C)C(=O)C1CCN(c2ccnc3c2c(/C=C2\Oc4ccc(NC(=O)Nc5ccc(CN6CCCCC6)cc5)cc4C2=O)cn3C)CC1 [Compound 216, N,N-dimethyl-1-(1-methyl-3-{(Z)-[3-oxo-5-({[4-(piperidin-1-ylmethyl)phenyl]carbamoyl}amino)-1-benzofuran-2(3H)-ylidene]methyl}-1H-pyrrolo[2,3-b]pyridin-4-yl)piperidine-4-carboxamide]	613	231	30	
CN(C)C(=O)C1CCN(c2ccnc3c2c(/C=C2\Oc4ccc(NC(=O)Nc5ccc(N6CCOCC6)nc5)cc4C2=O)cn3C)CC1 [Compound 217, N,N-dimethyl-1-(1-methyl-3-{(Z)-[5-{[(6-morpholin-4-ylpyridin-3-yl)carbamoyl]amino}-3-oxo-1-benzofuran-2(3H)-ylidene]methyl}-1H-pyrrolo[2,3-b]pyridin-4-yl)piperidine-4-carboxamide]	4010	> 10000	97	
CN1CCN(c2ccc(NC(=O)Nc3ccc4c(c3)C(=O)/C(=C/c3cn(C)c5nccc(N6CCC(C(=O)N(C)C)CC6)c35)O4)cc2)CC1 [Compound 218, N,N-dimethyl-1-(1-methyl-3-{(Z)-[5-({[4-(4-methylpiperazin-1-yl)phenyl]carbamoyl}amino)-3-oxo-1-benzofuran-2(3H)-ylidene]methyl}-1H-pyrrolo[2,3-b]pyridin-4-yl)piperidine-4-carboxamide]	994	> 10000	445	
Cn1cc(/C=C2\Oc3ccc(NC(=O)Nc4ccc(N5CCOCC5)nc4)cc3C2=O)c2c(N3CC4CCC(C3)O4)ccnc21 [Compound 219, 1-[(2Z)-2-{[1-methyl-4-(8-oxa-3-azabicyclo[3.2.1]oct-3-yl)-1H-pyrrolo[2,3-b]pyridin-3-yl]methylidene}-3-oxo-2,3-dihydro-1-benzofuran-5-yl]-3-(6-morpholin-4-ylpyridin-3-yl)urea]	2220	> 10000	29	
CN(C)CCOc1ccc(NC(=O)Nc2ccc3c(c2)C(=O)/C(=C/c2cn(C)c4nccc(N5CC6CCC(C5)O6)c24)O3)cc1 [Compound 220, 1-{4-[2-(dimethylamino)ethoxy]phenyl}-3-[(2Z)-2-{[1-methyl-4-(8-oxa-3-azabicyclo[3.2.1]oct-3-yl)-1H-pyrrolo[2,3-b]pyridin-3-yl]methylidene}-3-oxo-2,3-dihydro-1-benzofuran-5-yl]urea]	915	> 10000	62.5	
CN1CCN(NC(=O)Nc2ccc3c(c2)C(=O)/C(=C/c2cn(C)c4nccc(N5CC6CCC(C5)O6)c24)O3)CC1 [Compound 221, 1-[(2Z)-2-{[1-methyl-4-(8-oxa-3-azabicyclo[3.2.1]oct-3-yl)-1H-pyrrolo[2,3-b]pyridin-3-yl]methylidene}-3-oxo-2,3-dihydro-1-benzofuran-5-yl]-3-(4-methylpiperazin-1-yl)urea]	221	1010	175	
Cc1cccc(CN(C)C(=O)C2CCN(c3ccnc4c3c(/C=C3\Oc5ccc(NC(=O)Nc6cccnc6)cc5C3=O)cn4C)CC2)n1 [Compound 225, N-methyl-1-{1-methyl-3-[(Z)-{3-oxo-5-[(pyridin-3-ylcarbamoyl)amino]-1-benzofuran-2(3H)-ylidene}methyl]-1H-pyrrolo[2,3-b]pyridin-4-yl}-N-[(6-methylpyridin-2-yl)methyl]piperidine-4-carboxamide]	2320	1920		49
CN1CCN(NC(=O)Nc2ccc3c(c2)C(=O)/C(=C/c2cn(C)c4nccc(N5CCC(C(=O)N(C)C)CC5)c24)O3)CC1 [Compound 228, N,N-dimethyl-1-(1-methyl-3-{(Z)-[5-{[(4-methylpiperazin-1-yl)carbamoyl]amino}-3-oxo-1-benzofuran-2(3H)-ylidene]methyl}-1H-pyrrolo[2,3-b]pyridin-4-yl)piperidine-4-carboxamide]	415	2750	170	
CN1CCN(c2ccc(NC(=O)Nc3ccc4c(c3)C(=O)/C(=C/c3cn(C)c5nccc(N6CC7CCC(C6)O7)c35)O4)cc2)CC1 [Compound 229, 1-[(2Z)-2-{[1-methyl-4-(8-oxa-3-azabicyclo[3.2.1]oct-3-yl)-1H-pyrrolo[2,3-b]pyridin-3-yl]methylidene}-3-oxo-2,3-dihydro-1-benzofuran-5-yl]-3-[4-(4-methylpiperazin-1-yl)phenyl]urea]	2300	6670	280	

Further lines, with some results ahead:

IC50 (PI3Kα) [nM]	IC50 (PI3Kγ) [nM]	IC50 (mTOR; [1]) [nM]	Structure (SMILES)	IC50 (mTOR) [nM]
> 10000	2180	11	CN(C)C1CCN(C(=O)C2CCN(c3ccnc4c3c(C=C3Oc5ccc(NC(=O)Nc6cccnc6)cc5C3=O)cn4C)CC2)C1 (stereo not drawn) [Compound 210, 1-(2-{[4-(4-{[3-(dimethylamino)pyrrolidin-1-yl]carbonyl}piperidin-1-yl)-1-methyl-1H-pyrrolo[2,3-b]pyridin-3-yl]methylidene}-3-oxo-2,3-dihydro-1-benzofuran-5-yl)-3-pyridin-3-ylurea]	
> 10000	> 10000	11.5	CN(C(=O)C1CCN(c2ccnc3c2c(C=C2Oc4ccc(NC(=O)Nc5cccnc5)cc4C2=O)cn3C)CC1)C1CCS(=O)(=O)C1 (stereo not drawn) [Compound 211, N-(1,1-dioxidotetrahydrothiophen-3-yl)-N-methyl-1-[1-methyl-3-({3-oxo-5-[(pyridin-3-ylcarbamoyl)amino]-1-benzofuran-2(3H)-ylidene}methyl)-1H-pyrrolo[2,3-b]pyridin-4-yl]piperidine-4-carboxamide]	
7450	5230	5.7	Cn1cc(C=C2Oc3ccc(NC(=O)Nc4cccnc4)cc3C2=O)c2c(N3CCC(C(=O)NC4CCS(=O)(=O)C4)CC3)ccnc21 (stereo not drawn) [Compound 212, N-(1,1-dioxidotetrahydrothiophen-3-yl)-1-[1-methyl-3-({3-oxo-5-[(pyridin-3-ylcarbamoyl)amino]-1-benzofuran-2(3H)-ylidene}methyl)-1H-pyrrolo[2,3-b]pyridin-4-yl]piperidine-4-carboxamide]	
8360	7220	18.9	CN(C(=O)C1CCN(c2ccnc3c2c(C=C2Oc4ccc(NC(=O)Nc5cccnc5)cc4C2=O)cn3C)CC1)C1CCOCC1 [Compound 213, N-methyl-1-[1-methyl-3-({3-oxo-5-[(pyridin-3-ylcarbamoyl)amino]-1-benzofuran-2(3H)-ylidene}methyl)-1H-pyrrolo[2,3-b]pyridin-4-yl]-N-(tetrahydro-2H-pyran-4-yl)piperidine-4-carboxamide]	
> 10000	> 10000	10.2	Cn1cc(C=C2Oc3ccc(NC(=O)Nc4cccnc4)cc3C2=O)c2c(N3CCC(C(=O)NC4CCOCC4)CC3)ccnc21 [Compound 214, 1-[1-methyl-3-({3-oxo-5-[(pyridin-3-ylcarbamoyl)amino]-1-benzofuran-2(3H)-ylidene}methyl)-1H-pyrrolo[2,3-b]pyridin-4-yl]-N-(tetrahydro-2H-pyran-4-yl)piperidine-4-carboxamide]	
> 10000	9280	102	CN(Cc1ccccc1)C(=O)C1CCN(c2ccnc3c2c(C=C2Oc4ccc(NC(=O)Nc5cccnc5)cc4C2=O)cn3C)CC1 [Compound 215, N-benzyl-N-methyl-1-[1-methyl-3-({3-oxo-5-[(pyridin-3-ylcarbamoyl)amino]-1-benzofuran-2(3H)-ylidene}methyl)-1H-pyrrolo[2,3-b]pyridin-4-yl]piperidine-4-carboxamide]	
2830	2540	34	Cc1cnccc1CN(C)C(=O)C1CCN(c2ccnc3c2c(/C=C2\Oc4ccc(NC(=O)Nc5cccnc5)cc4C2=O)cn3C)CC1 [Compound 222, N-methyl-1-{1-methyl-3-[(Z)-{3-oxo-5-[(pyridin-3-ylcarbamoyl)amino]-1-benzofuran-2(3H)-ylidene}methyl]-1H-pyrrolo[2,3-b]pyridin-4-yl}-N-[(3-methylpyridin-4-yl)methyl]piperidine-4-carboxamide]	
1850	1270	23	Cc1cc(CN(C)C(=O)C2CCN(c3ccnc4c3c(/C=C3\Oc5ccc(NC(=O)Nc6cccnc6)cc5C3=O)cn4C)CC2)ccn1 [Compound 223, N-methyl-1-{1-methyl-3-[(Z)-{3-oxo-5-[(pyridin-3-ylcarbamoyl)amino]-1-benzofuran-2(3H)-ylidene}methyl]-1H-pyrrolo[2,3-b]pyridin-4-yl}-N-[(2-methylpyridin-4-yl)methyl]piperidine-4-carboxamide]	
2370	1420	23.5	COc1ccnc(CN(C)C(=O)C2CCN(c3ccnc4c3c(/C=C3\Oc5ccc(NC(=O)Nc6cccnc6)cc5C3=O)cn4C)CC2)c1 [Compound 224, N-[(4-methoxypyridin-2-yl)methyl]-N-methyl-1-{1-methyl-3-[(Z)-{3-oxo-5-[(pyridin-3-ylcarbamoyl)amino]-1-benzofuran-2(3H)-ylidene}methyl]-1H-pyrrolo[2,3-b]pyridin-4-yl}piperidine-4-carboxamide]	
921	1140	22.5	C#CCN(C)C(=O)C1CCN(c2ccnc3c2c(/C=C2\Oc4ccc(NC(=O)Nc5cccnc5)cc4C2=O)cn3C)CC1 [Compound 226, N-methyl-1-{1-methyl-3-[(Z)-{3-oxo-5-[(pyridin-3-ylcarbamoyl)amino]-1-benzofuran-2(3H)-ylidene}methyl]-1H-pyrrolo[2,3-b]pyridin-4-yl}-N-prop-2-yn-1-ylpiperidine-4-carboxamide]	
2720	1110	165	CN(C(=O)C1CCN(c2ccnc3c2c(/C=C2\Oc4ccc(NC(=O)Nc5cccnc5)cc4C2=O)cn3C)CC1)C1CCCC1 [Compound 227, N-cyclopentyl-N-methyl-1-{1-methyl-3-[(Z)-{3-oxo-5-[(pyridin-3-ylcarbamoyl)amino]-1-benzofuran-2(3H)-ylidene}methyl]-1H-pyrrolo[2,3-b]pyridin-4-yl}piperidine-4-carboxamide]	
